Measurements as given in US8802597B2, “Herbicidal pyrimidines” (E I du Pont de Nemours and Company, priority 2003, dated 2014).

Key:
Assay in all cases: Test C pre/postemergence
Type in all cases: in vivo
[1] = tested on: Surinam grass (Brachiaria decumbens); conditions: for Plant response rating (scale of 0 to 100), Surinam Grass: Postemergence; for Plant response rating, Surinam Grass: Preemergence, scale 0 to 100, 0 no effect, 100 complete control
How it was run: (§1)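 Seeds sown and sprayed preemergence with test compound in non-phytotoxic solvent containing surfactant; postemergence sprays, same formulation, went onto plants 2 to 18 cm tall (1- to 4-leaf stage). Plants held in greenhouse 12 to 14 days, then visually rated against untreated controls on a 0–100 scale (0 no effect, 100 complete control).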

[2] = tested on: cocklebur (Xanthium strumarium); conditions: for Plant response rating, Cocklebur: Preemergence
How it was run: as §1

[3] = tested on: common (oilseed) sunflower (Helianthus annuus); conditions: Preemergence, scale 0 to 100, 0 no effect, 100 complete control
How it was run: as §1

[4] = tested on: common ragweed (Ambrosia elatior); conditions: for Plant response rating, Ragweed: Preemergence, scale 0 to 100, 0 no effect, 100 complete control
How it was run: as §1

corn (Zea mays) = conditions: for Plant response rating, Corn: Preemergence
How it was run: as §1

[5] = tested on: crabgrass (Digitaria sanguinalis); conditions: for Plant response rating, Crabgrass: Preemergence
How it was run: as §1

[6] = tested on: goosegrass (Eleusine indica); conditions: for Plant response rating, Goosegrass: Preemergence
How it was run: as §1

kochia (Kochia scoparia) = conditions: for Plant response rating, Kochia: Preemergence
How it was run: as §1

[7] = tested on: lambsquarters (Chenopodium album); conditions: for Plant response rating, Lambsquarters: Preemergence
How it was run: as §1

[8] = tested on: pigweed (Amaranthus retroflexus); conditions: for Plant response rating, Pigweed: Preemergence, scale 0 to 100, 0 no effect, 100 complete control
How it was run: as §1

[9] = tested on: velvetleaf (Abutilon theophrasti); conditions: for Plant response rating, Velvetleaf: Preemergence, scale 0 to 100, 0 no effect, 100 complete control
How it was run: as §1

[10] = tested on: yellow nutsedge (Cyperus esculentus); conditions: for Plant response rating, Nutsedge, Yellow: Preemergence, scale 0 to 100, 0 no effect, 100 complete control
How it was run: as §1

[11] = Postemergence, 125 g ai/ha, scale 0 to 100 (0 no effect, 100 complete control)
[12] = 16 g ai/ha, scale 0 to 100, 0 no effect, 100 complete control
[13] = 31 g ai/ha, scale 0 to 100, 0 no effect, 100 complete control
[14] = 62 g ai/ha, scale 0 to 100, 0 no effect, 100 complete control

CCCCOC(=O)c1nc(C2CC2)nc(N)c1Cl [Compound 76]
80: Plant response rating (scale of 0 to 100), Ragweed ([4]; Postemergence, 16 g ai/ha) | Plant response rating, Ragweed ([4]; 62 g ai/ha) | Plant response rating, Lambsquarters [7, 14] | Plant response rating, Lambsquarters ([7]; 125 g ai/ha, scale 0 to 100) | Plant response rating, Pigweed ([8]; 31 g ai/ha) | Plant response rating, Pigweed ([8]; 62 g ai/ha) | Plant response rating (scale of 0 to 100), Velvetleaf ([9]; Postemergence, 31 g ai/ha)
0: Plant response rating, Surinam Grass ([1]; 16 g ai/ha) | Plant response rating, Surinam Grass ([1]; 31 g ai/ha) | Plant response rating, Surinam Grass ([1]; 62 g ai/ha) | Plant response rating, Corn (corn (Zea mays); [12]) | Plant response rating, Corn (corn (Zea mays); [13]) | Plant response rating, Crabgrass [5, 12] | Plant response rating, Crabgrass [5, 13] | Plant response rating, Goosegrass [6, 12] | Plant response rating, Goosegrass [6, 13] | Plant response rating, Goosegrass [6, 14] | Plant response rating, Goosegrass ([6]; 125 g ai/ha, scale 0 to 100) | Plant response rating, Nutsedge, Yellow ([10]; 16 g ai/ha) | Plant response rating, Nutsedge, Yellow ([10]; 31 g ai/ha) | Plant response rating, Nutsedge, Yellow ([10]; 62 g ai/ha)
5: Plant response rating, Crabgrass [5, 14]
65: Plant response rating, Cocklebur [2, 12]
40: Plant response rating, Velvetleaf ([9]; 31 g ai/ha) | Plant response rating (scale of 0 to 100), Nutsedge, Yellow ([10]; Postemergence, 62 g ai/ha)
30: Plant response rating (scale of 0 to 100), Goosegrass ([6]; Postemergence, 16 g ai/ha) | Plant response rating, Velvetleaf ([9]; 16 g ai/ha) | Plant response rating (scale of 0 to 100), Nutsedge, Yellow ([10]; Postemergence, 31 g ai/ha)
45: Plant response rating, Corn (corn (Zea mays); 125 g ai/ha, scale 0 to 100) | Plant response rating (scale of 0 to 100), Goosegrass ([6]; Postemergence, 31 g ai/ha) | Plant response rating (scale of 0 to 100), Goosegrass ([6]; Postemergence, 62 g ai/ha) | Plant response rating (scale of 0 to 100), Velvetleaf ([9]; Postemergence, 16 g ai/ha)
35: Plant response rating (scale of 0 to 100), Corn (corn (Zea mays); Postemergence, 31 g ai/ha) | Plant response rating, Corn (corn (Zea mays); [14])
70: Plant response rating (scale of 0 to 100), Surinam Grass ([1]; 31 g ai/ha) | Corn plant response rating (corn (Zea mays); [11]) | Plant response rating, Kochia (kochia (Kochia scoparia); [12]) | Plant response rating, Lambsquarters [7, 12] | Plant response rating, Lambsquarters [7, 13] | Plant response rating, Velvetleaf ([9]; 62 g ai/ha)
95: Plant response rating (scale of 0 to 100), Surinam Grass ([1]; 62 g ai/ha) | Plant response rating (scale of 0 to 100), Ragweed ([4]; Postemergence, 62 g ai/ha) | Plant response rating (scale of 0 to 100), Kochia (kochia (Kochia scoparia); Postemergence, 31 g ai/ha) | Plant response rating (scale of 0 to 100), Kochia (kochia (Kochia scoparia); Postemergence, 62 g ai/ha) | Plant response rating, Kochia (kochia (Kochia scoparia); [14]) | Plant response rating (scale of 0 to 100), Lambsquarters ([7]; Postemergence, 31 g ai/ha) | Plant response rating (scale of 0 to 100), Pigweed ([8]; Postemergence, 31 g ai/ha) | Plant response rating (scale of 0 to 100), Velvetleaf ([9]; Postemergence, 62 g ai/ha) | Velvetleaf plant response rating [9, 11]
50: Plant response rating, Sunflower ([3]; 16 g ai/ha) | Plant response rating, Ragweed ([4]; 16 g ai/ha) | Goosegrass plant response rating [6, 11]
90: Plant response rating, Cocklebur [2, 13] | Plant response rating, Cocklebur [2, 14] | Plant response rating, Cocklebur ([2]; 125 g ai/ha, scale 0 to 100) | Plant response rating (scale of 0 to 100), Ragweed ([4]; Postemergence, 31 g ai/ha) | Crabgrass plant response rating [5, 11] | Plant response rating (scale of 0 to 100), Kochia (kochia (Kochia scoparia); Postemergence, 16 g ai/ha) | Plant response rating, Kochia (kochia (Kochia scoparia); [13]) | Plant response rating (scale of 0 to 100), Lambsquarters ([7]; Postemergence, 16 g ai/ha)
85: Plant response rating, Sunflower ([3]; 31 g ai/ha) | Plant response rating (scale of 0 to 100), Crabgrass ([5]; Postemergence, 62 g ai/ha) | Plant response rating (scale of 0 to 100), Pigweed ([8]; Postemergence, 16 g ai/ha)
10: Plant response rating (scale of 0 to 100), Corn (corn (Zea mays); Postemergence, 16 g ai/ha) | Plant response rating (scale of 0 to 100), Nutsedge, Yellow ([10]; Postemergence, 16 g ai/ha)
60: Plant response rating (scale of 0 to 100), Surinam Grass ([1]; 16 g ai/ha) | Plant response rating, Ragweed ([4]; 31 g ai/ha) | Plant response rating, Crabgrass ([5]; 125 g ai/ha, scale 0 to 100) | Plant response rating, Pigweed ([8]; 16 g ai/ha) | Nutsedge, Yellow plant response rating [10, 11]
55: Plant response rating (scale of 0 to 100), Corn (corn (Zea mays); Postemergence, 62 g ai/ha) | Plant response rating (scale of 0 to 100), Crabgrass ([5]; Postemergence, 16 g ai/ha)
75: Plant response rating (scale of 0 to 100), Crabgrass ([5]; Postemergence, 31 g ai/ha)
100: Plant response rating (scale of 0 to 100), Cocklebur ([2]; Postemergence, 16 g ai/ha) | Plant response rating (scale of 0 to 100), Cocklebur ([2]; Postemergence, 31 g ai/ha) | Plant response rating (scale of 0 to 100), Cocklebur ([2]; Postemergence, 62 g ai/ha) | Cocklebur plant response rating [2, 11] | Plant response rating, Sunflower ([3]; 62 g ai/ha) | Ragweed plant response rating [4, 11] | Plant response rating, Ragweed [4] | Kochia plant response rating (kochia (Kochia scoparia); [11]) | Plant response rating, Kochia (kochia (Kochia scoparia); 125 g ai/ha, scale 0 to 100) | Plant response rating (scale of 0 to 100), Lambsquarters ([7]; Postemergence, 62 g ai/ha) | Lambsquarters plant response rating [7, 11] | Plant response rating (scale of 0 to 100), Pigweed ([8]; Postemergence, 62 g ai/ha) | Pigweed plant response rating [8, 11]
